The source of these data is US20220135547A1, “HETEROCYCLIC LOW-MOLECULAR SAPP MIMETICS, A PHARMACEUTICAL COMPOSITION AND METHODS FOR PRODUCING AND USING SAME” (priority 2010, published 2022).

This experiment relates to 1-3 days old chicken memory. The experiment can be described thus: one-trial passive avoidance learning task in chicks (weak training, test 24 hours after training). The experiment is classed as in vivo. The conditions noted are these: for dosage at which the maximum effect was observed: weak training, chicks. On the procedure: The method of one-trial passive avoidance learning task has been used in order to investigate the compounds action on 1-3 days old chicken memory. This is the basic method using for investigation the mechanisms of memory formation. Cross chickens (males) “Ptichnoe” were used in experiments. The animals were delivered at the day of hatching and were kept in pairs in the cages which measured 20×25×20 cm, with constant access to water and feed, at a temperature 28° C. and a light cycle of 12:12 hours. The minimal adaptation time was two hours.
The compounds were dissolved in sterile saline. Intraperitoneal injections of 0.1 ml were used for systemic administration. Bilateral intracranial injections were administrated to the lateral ventricles with […] microsyringe («Hamilton») using plastic headholder. The volume of injections was […] for hemisphere. To control the localizations of injections the monitoring of the surface of skull and brain were carried out after the experiment and decapitation. Control groups received saline of the same volume.
The experiments were conducted according the following scheme: 20 minutes before training the animals were pretrained by being offered two neutral (wet with water) […] fixed to a rod. For further training chicks that pecked each bead within first 10 sec were used. Chicks were offered an aversive bead wet with pungent solution (10% solution of methylanthranilate in ethanol). […] Testing was conducted 24 hours after training by offering within 10 seconds a similar but dry aversive bead, and then—a neutral bead. The avoidance of aversive bead was estimated as a long-term memory.

The mark [1] stands for this setting: administrated either immediately before training, or 4 hours after completion of the training.

The structures appear in SMILES notation.

Consider `O=C(NCCc1ccncc1)C(NCCc1ccncc1)c1ccc2c(c1)OCO2` (stereo not drawn) [ACB-0005, 2-(1,3-benzodioxole-5-yl)-N-(2-pyridine-4-ylethyl)-2-[(2-pyridine-4-ylethyl)-amino]acetamid], for which the “dosage at which the maximum effect was observed” value reads like this: (10 min training (route not given)) 0.1 mg/kg; (intracranial injection 10-30 min before training) 5 mg. Further, the effect on memory result is reported as “may enhance memory” under setting [1] and “stimulating effect on memory” (oral administration 30 min before weak treatment, dosage 0.1 to 1.0 mg/kg). Besides, for the setting “equivalent of 0.1 mg/kg, 10 min training”, the “dosage at which the maximum effect was observed, per animal” value is 4 µg per animal.

As for `COC(=O)c1ccc(C(NCCc2ccncc2)C(=O)NCCc2ccncc2)cc1` (stereo not drawn) [ACB-0002, Methyl 4-{2-oxo-1,2-bis[(2-pyridine-4-ylethyl)amino]ethyl}benzoate], the effect on memory result under setting [1] was “may enhance memory”.
